Reference: PubChem BioAssay AID2060607 (Molecular Pharmacology Branch, DTP, NCI, 2025)
Values joined by “and” are separate entries in the source; they are usually repeats but may differ in a detail not shown here. Equal entries are not always repeated.

Test system: 876862-298-R-J1-PDC complex spheroids, viability % test/control
Test: Anticancer human tumor 876862-298-R-J1-PDC patient-derived endometrial carcinoma cell line growth inhibition [CLK]
Settings: for viability, T/C: stronger effect = lower value
In short: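 Multi-cell-type spheroids combined patient-derived tumor cells with HUVEC endothelial cells and human mesenchymal stem cells. Paired agents were dosed in half-log steps down from about clinical Cmax, or from 10 microM where Cmax was unknown.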

[1] = curve of first compound, second compound 0.0316 µM
[2] = curve of first compound, second compound 0.1 µM
[3] = curve of first compound, second compound 0.316 µM
[4] = curve of first compound, second compound 1 µM
[5] = curve of first compound, second compound 3.16 µM
[6] = curve of first compound, second compound 10 µM
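Further: spheroids exposed to drugs for 7 days before readout.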
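Wherever viability, T/C is given: 100% = DMSO vehicle control wells.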

Compound: CC(C)CC(NC(=O)C(Cc1ccccc1)NC(=O)c1cnccn1)B(O)O (stereo not drawn) + CN1CCN(c2cc(C(=O)Nc3cc4cc(-c5cnn(C)c5)ccc4cn3)ccn2)CC1
- IC50 [1]: 1.77 nM
- IC50 [2]: 0.97 nM
- IC50 [3]: < 0.949 nM
- IC50 [4]: < 0.949 nM
- IC50 [5]: < 0.949 nM
- IC50 [6]: < 0.949 nM
- viability, T/C (second compound 0.0316 µM, first compound 0.000949 µM): 92.9%
- viability, T/C (second compound 0.0316 µM, first compound 0.003 µM): 13.8%
- viability, T/C (second compound 0.0316 µM, first compound 0.00949 µM): 1.49%
- viability, T/C (second compound 0.0316 µM, first compound 0.03 µM): 0.54%
- viability, T/C (second compound 0.0316 µM, first compound 0.0949 µM): 0.87%
- viability, T/C (second compound 0.0316 µM, first compound 0.3 µM): 0.26%
- viability, T/C (second compound 0.1 µM, first compound 0.000949 µM): 50.9%
- viability, T/C (second compound 0.1 µM, first compound 0.003 µM): 9.76%
- viability, T/C (second compound 0.1 µM, first compound 0.00949 µM): 0.72%
- viability, T/C (second compound 0.1 µM, first compound 0.03 µM): 0.44%
- viability, T/C (second compound 0.1 µM, first compound 0.0949 µM): 0.43%
- viability, T/C (second compound 0.1 µM, first compound 0.3 µM): 0.26%
- viability, T/C (second compound 0.316 µM, first compound 0.000949 µM): 2.77%
- viability, T/C (second compound 0.316 µM, first compound 0.003 µM): 0.46%
- viability, T/C (second compound 0.316 µM, first compound 0.00949 µM): 1.45%
- viability, T/C (second compound 0.316 µM, first compound 0.03 µM): 0.39%
- viability, T/C (second compound 0.316 µM, first compound 0.0949 µM): 0.5%
- viability, T/C (second compound 0.316 µM, first compound 0.3 µM): 0.26%
- viability, T/C (second compound 1 µM, first compound 0.000949 µM): 0.6%
- viability, T/C (second compound 1 µM, first compound 0.003 µM): 0.27%
- viability, T/C (second compound 1 µM, first compound 0.00949 µM): 0.45%
- viability, T/C (second compound 1 µM, first compound 0.03 µM): 0.53%
- viability, T/C (second compound 1 µM, first compound 0.0949 µM): 0.45%
- viability, T/C (second compound 1 µM, first compound 0.3 µM): 0.57%
- viability, T/C (second compound 3.16 µM, first compound 0.000949 µM): 1.3%
- viability, T/C (second compound 3.16 µM, first compound 0.003 µM): 0.5%
- viability, T/C (second compound 3.16 µM, first compound 0.00949 µM): 0.68%
- viability, T/C (second compound 3.16 µM, first compound 0.03 µM): 0.95%
- viability, T/C (second compound 3.16 µM, first compound 0.0949 µM): 0.69%
- viability, T/C (second compound 3.16 µM, first compound 0.3 µM): 0.43%
- viability, T/C (second compound 10 µM, first compound 0.000949 µM): 0.67%
- viability, T/C (second compound 10 µM, first compound 0.003 µM): 0.32%
- viability, T/C (second compound 10 µM, first compound 0.00949 µM): 1.9%
- viability, T/C (second compound 10 µM, first compound 0.03 µM): 0.44%
- viability, T/C (second compound 10 µM, first compound 0.0949 µM): 0.42%
- viability, T/C (second compound 10 µM, first compound 0.3 µM): 0.27%

Compound: CNC(=O)c1ccc(Nc2nc(OC3CCCC3)c3c(-c4ccc5nc(C)oc5c4)c[nH]c3n2)c(OC)c1
- viability, T/C (compound 0.0316 µM): 86% [middle of 12 runs]
- viability, T/C (compound 0.1 µM): 49.5% [middle of 12 runs]
- viability, T/C (compound 0.316 µM): 37.8% [middle of 12 runs]
- viability, T/C (compound 1 µM): 28.6% [middle of 12 runs]
- viability, T/C (compound 3.16 µM): 24.6% [middle of 12 runs]
- viability, T/C (compound 10 µM): 23.1% [middle of 12 runs]
- IC50 (compound alone, run of 09/19/2023): 112 nM [middle of 11 runs]

Compound: CCCS(=O)(=O)Nc1ccc(F)c(C(=O)c2c[nH]c3ncc(-c4ccc(Cl)cc4)cc23)c1F + CN1CCN(c2cc(C(=O)Nc3cc4cc(-c5cnn(C)c5)ccc4cn3)ccn2)CC1
- IC50 [1]: 6760 nM
- IC50 [2]: 974 nM
- IC50 [3]: < 31.6 nM
- IC50 [4]: < 31.6 nM
- IC50 [5]: < 31.6 nM
- IC50 [6]: < 31.6 nM
- viability, T/C (second compound 0.0316 µM, first compound 0.0316 µM): 103%
- viability, T/C (second compound 0.0316 µM, first compound 0.1 µM): 93.4%
- viability, T/C (second compound 0.0316 µM, first compound 0.316 µM): 89.2%
- viability, T/C (second compound 0.0316 µM, first compound 1 µM): 101%
- viability, T/C (second compound 0.0316 µM, first compound 3.16 µM): 77.1%
- viability, T/C (second compound 0.0316 µM, first compound 10 µM): 36.1%
- viability, T/C (second compound 0.1 µM, first compound 0.0316 µM): 63.4%
- viability, T/C (second compound 0.1 µM, first compound 0.1 µM): 51.6%
- viability, T/C (second compound 0.1 µM, first compound 0.316 µM): 53.1%
- viability, T/C (second compound 0.1 µM, first compound 1 µM): 50.7%
- viability, T/C (second compound 0.1 µM, first compound 3.16 µM): 42.2%
- viability, T/C (second compound 0.1 µM, first compound 10 µM): 22.5%
- viability, T/C (second compound 0.316 µM, first compound 0.0316 µM): 4.72%
- viability, T/C (second compound 0.316 µM, first compound 0.1 µM): 3.82%
- viability, T/C (second compound 0.316 µM, first compound 0.316 µM): 5.6%
- viability, T/C (second compound 0.316 µM, first compound 1 µM): 5.09%
- viability, T/C (second compound 0.316 µM, first compound 3.16 µM): 5.93%
- viability, T/C (second compound 0.316 µM, first compound 10 µM): 3.83%
- viability, T/C (second compound 1 µM, first compound 0.0316 µM): 0.82%
- viability, T/C (second compound 1 µM, first compound 0.1 µM): 1.88%
- viability, T/C (second compound 1 µM, first compound 0.316 µM): 1.54%
- viability, T/C (second compound 1 µM, first compound 1 µM): 2.17%
- viability, T/C (second compound 1 µM, first compound 3.16 µM): 3.28%
- viability, T/C (second compound 1 µM, first compound 10 µM): 1.25%
- viability, T/C (second compound 3.16 µM, first compound 0.0316 µM): 1.32%
- viability, T/C (second compound 3.16 µM, first compound 0.1 µM): 2.22%
- viability, T/C (second compound 3.16 µM, first compound 0.316 µM): 9.57%
- viability, T/C (second compound 3.16 µM, first compound 1 µM): 1.58%
- viability, T/C (second compound 3.16 µM, first compound 3.16 µM): 2.88%
- viability, T/C (second compound 3.16 µM, first compound 10 µM): 2.88%
- viability, T/C (second compound 10 µM, first compound 0.0316 µM): 1.06%
- viability, T/C (second compound 10 µM, first compound 0.1 µM): 1.12%
- viability, T/C (second compound 10 µM, first compound 0.316 µM): 1.23%
- viability, T/C (second compound 10 µM, first compound 1 µM): 10.9%
- viability, T/C (second compound 10 µM, first compound 3.16 µM): 7.9%
- viability, T/C (second compound 10 µM, first compound 10 µM): 2.22%

Compound: COC1C=CCC(C)C(C)S(=O)(=O)NC(=O)c2ccc3c(c2)N(CC2CCC21)CC1(CCCc2cc(Cl)ccc21)CO3 (stereo not drawn)
- viability, T/C (compound 0.0316 µM): 112% and 102%
- viability, T/C (compound 0.1 µM): 97.2% and 97.7%
- viability, T/C (compound 0.316 µM): 102% and 97.5%
- viability, T/C (compound 1 µM): 107% and 99.3%
- viability, T/C (compound 3.16 µM): 109% and 99.7%
- viability, T/C (compound 10 µM): 38.3% and 29.6%
- IC50 (curve of compound): 8200 nM and 7140 nM
